In patent US8961946B2, “Hair processing agent and method for permanent waving hair” (Showa Denko K.K., priority 2004, dated 2015):
Where a name gives a salt, the structure may show the parent alone.

Assay: Waving efficiency at various pH, compounds (i) and (ii) tested singly (FIG. 1)
Settings: agent contains the compound at 2% by mass in terms of thioglycolic acid
Description: The hair processing agents tested herein contain the compound at 2% by mass in terms of thioglycolic acid. […] Consequently, the compounds (i) and (ii) in combination provide a permanent waving performance over a wide pH range.

## NCCS [compound (ii), cysteamine hydrochloride]
  Changes of waving efficiency at various pH (FIG. 1): low waving efficiency at acidic pH, but the waving efficiency linearly increases with the pH increase

## O=C1OCCC1S (centres unmarked) [Synthetic Example 1, 2-mercapto-4-butyrolactone]
  Changes of waving efficiency at various pH (FIG. 1): high waving efficiency in an acidic to neutral pH range
